Laboratory results taken from PubChem BioAssay (NCI).
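All cell lines were grown in 96-well plates and treated with compound for 48 hours. TGI: concentration producing complete growth inhibition.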

Columns and labels:
Experiment in all cases: NCI-60 cell line screen, 48 h
DLD-1 colon = system: DLD-1 colon
DMS 114 small cell lung = system: DMS 114 small cell lung
DMS 273 small cell lung = system: DMS 273 small cell lung
HOP-18 NSCLC = system: HOP-18 NSCLC
KM20L2 colon = system: KM20L2 colon
LXFL 529 NSCLC = system: LXFL 529 NSCLC
M19-MEL melanoma = system: M19-MEL melanoma
NCI-H226 lung = system: NCI-H226 lung
NCI-H460 lung = system: NCI-H460 lung
RXF-631 renal = system: RXF-631 renal
SF-268 CNS = system: SF-268 CNS
XF 498 CNS = system: XF 498 CNS
SNB-78 CNS = system: SNB-78 CNS
BT-549 breast = system: BT-549 breast
DU-145 prostate = system: DU-145 prostate
T-47D breast = system: T-47D breast

SMILES | TGI (DLD-1 colon) [µM] | TGI (DMS 114 small cell lung) [µM] | TGI (DMS 273 small cell lung) [µM] | TGI (HOP-18 NSCLC) [µM] | TGI (KM20L2 colon) [µM] | TGI (LXFL 529 NSCLC) [µM] | TGI (M19-MEL melanoma) [µM] | TGI (NCI-H226 lung) [µM] | TGI (NCI-H460 lung) [µM] | TGI (RXF-631 renal) [µM] | TGI (SF-268 CNS) [µM] | TGI (XF 498 CNS) [µM] | TGI (SNB-78 CNS) [µM] | TGI (BT-549 breast) [µM] | TGI (DU-145 prostate) [µM] | TGI (T-47D breast) [µM]
CCOP1(=O)C=C(C)C(Cl)=C(C)C1 (stereo unspecified) | > 100 | 44.9 | 30.8 | > 100 | > 100 | 44.5 | > 100 | 59.9 | > 100 | 30.5 | > 100 | 75.2 | – | – | – | –
CC(N)Cc1ccc(Cl)c(Cl)c1 (stereo unspecified) | > 100 | 48.1 | > 71.9 | > 77.1 | 53.7 | 34.9 | 47 | > 100 | 97.1 | – | > 100 | 23.7 | > 100 | – | – | –
CN(C)C(=NCc1ccccc1)NC#N | > 100 | – | > 100 | – | > 100 | > 100 | > 100 | – | > 100 | – | > 100 | – | > 100 | – | – | –
CCOC(=O)/C=C/CCO[Si](C)(C)C(C)(C)C | – | – | – | – | – | – | – | > 100 | > 100 | – | > 100 | – | – | > 100 | > 100 | > 100
CCOC(=O)C1(C(=O)OCC)[C@@H](c2ccccc2)C2=NO[C@@H]3CCC[C@H]1[C@H]23 | – | – | – | – | – | – | – | > 100 | > 100 | – | > 100 | – | – | > 100 | > 100 | > 100
O=C1CSC2(CC(/C=C/c3cccc([N+](=O)[O-])c3)=NN2c2cccc(S(=O)(=O)O)c2)N1c1nc2ccccc2s1 (stereo unspecified) | – | – | – | – | – | – | – | 77.5 | 63.2 | – | > 100 | – | – | 32.7 | 40.6 | 73.8
O=[N+]([O-])c1ccc(C(=S)Nc2ccccc2)o1 | – | – | – | – | – | – | – | 15 | 12.1 | – | 13 | – | – | 14.1 | 19.9 | 95.1
COc1ccc(N2C(=O)/C(=C\c3cc(OC)c(OC)c(OC)c3)SC2c2ccccc2)cc1 (stereo unspecified) | – | – | – | – | – | – | – | > 100 | > 100 | – | > 100 | – | – | > 100 | > 100 | > 100
Cc1nc2ccc(C(F)(F)F)cc2nc1NCc1ccc(Cl)c(Cl)c1 | – | – | – | – | – | – | – | 37.9 | > 100 | – | 34 | – | – | 39.7 | 31.8 | 9
O=C1Cc2c([nH]c3ccc(Br)cc23)-c2cc(O)c(O)cc2N1 | – | – | – | – | – | – | – | > 100 | > 100 | – | > 100 | – | – | > 100 | > 100 | > 100
C/C=C/C#CC#C/C=C/C=C/C(O)CCO (stereo unspecified) | > 23.1 | > 23.1 | > 23.1 | > 23.1 | > 23.1 | > 23.1 | > 23.1 | > 23.1 | > 23.1 | – | > 23.1 | > 23.1 | > 23.1 | – | – | –
CCOC(=O)c1c(C)n(-c2ccc(Cl)cc2)c2c1cc(O)c1[nH]c3c(c12)CCCC3 | – | – | – | – | – | – | – | > 100 | > 100 | – | > 100 | – | – | > 100 | > 100 | > 100
CCOC(=O)C(=CNc1ccc(NC2=NCC(C)S2)cc1)C(=O)OCC (stereo unspecified) | – | – | – | – | – | – | – | > 100 | > 100 | – | > 100 | – | – | 48.9 | > 100 | > 84.5
CC1(C)CNCC(C)(OCc2ccccc2)C(=O)NC(C)(C)CNCC(C)(OCc2ccccc2)C(=O)N1 (stereo unspecified) | – | – | – | – | – | – | – | > 10 | > 10 | – | > 10 | – | – | > 10 | > 10 | > 10
COc1c(=O)cc2cc[nH]c3ccn(C)c1c23 | – | – | – | – | – | – | – | > 100 | > 100 | – | > 100 | – | – | > 100 | > 100 | > 100
COC(=O)[C@]1(NC(=O)c2ccccc2)C[C@H]1C=O | – | – | – | – | – | – | – | > 100 | 77 | – | > 100 | – | – | > 100 | > 100 | > 100
C/C(=C\CBr)CCC(Br)C(C)(C)Cl (stereo unspecified) | > 100 | > 100 | > 100 | > 100 | – | > 100 | > 100 | > 100 | > 100 | – | > 100 | – | > 100 | – | – | –
